Experimental data published in US20260102380A1, “Synthesis and Characterization of Cyclic Hydrocarbon Esters of Everolimus” (BIOTRONIK AG, priority 2022, published 2026).
“And” between values parts separate entries of the source, which are not always exact repeats. Equal values may be shown once. Read-outs that look alike come from different tables or passages of the source.

Columns and labels:
[1] = Elution study on porcine coronary artery; details: for Percent of Drug Eluted Over Time: samples 1 and 2
Procedure: (§1) To examine the effects of certain formulations of the present invention on porcine coronary artery samples, the samples were each prepared as follows:
(§2) Elution Media Preparation: Normal saline was prepared by weighing 4.5 grams of sodium chloride into a 500 mL Pyrex® bottle. 495.5 grams HPLC water was added to the 500 ml bottle. The bottle was then capped and vigorously shaken. 25% ethanol/saline elution media was prepared by weighing 25.0 grams of ethanol (200 proof) into a 100 mL Pyrex® bottle. 75.0 grams of normal saline was added to the 100 ml bottle containing ethanol. The bottle was capped and vigorously shaken.
(§3) Elution Method: Porcine coronary arterial vessels were obtained and dissected from hearts obtained from the butcher shop. Coronary arteries were flash frozen with dry ice then stored at −80° C. When ready for testing, arteries were removed from the freezer and allowed to thaw at room temperature. Any fat and muscle tissue were carefully removed using scissors and tweezers. Vessels were rinsed several times with normal saline containing 0.05% sodium azide.
(§4) Vessels were then cut into 1 cm sections. 5 μL of formulation (approximately 125 μg of drug) was carefully added onto the outer part of the tissue using a 10 μL Hamilton® syringe. Ethanol was allowed to evaporate at room temperature for 15-20 minutes.
(§5) Tissue was then placed into a 7 mL glass vial. 2 mL elution media, previously warmed to 37° C., was added carefully to each vial using an Eppendorf® pipette. Each vial was capped and placed in a 37° C. incubator and gently shaken at 100 spm (strokes per minute).
(§6) At certain time points, elution media was removed and fresh 2 mL media (at 37° C.) was slowly added to the vial.
(§7) Drug formulations in ethanol were applied (approximately 125 μg) onto previously frozen “butcher shop” porcine coronary arterial vessel and allowed to dry after 15-20 minutes.

[2] = pig
Procedure: as §1, §2, §3, §4, §5, §6, §7

Row | SMILES | Percent of Drug Eluted Over Time ([1]; 0.5 hours, approx. 125 μg drug on 1 cm vessel section, 25% ethanol/saline, 37° C.) | Percent of Drug Eluted Over Time ([1]; 1 hour, approx. 125 μg drug on 1 cm vessel section, 25% ethanol/saline, 37° C.) | Percent of Drug Eluted Over Time ([1]; 2 hours, approx. 125 μg drug on 1 cm vessel section, 25% ethanol/saline, 37° C.) | Percent of Drug Eluted Over Time ([1]; 3 hours, approx. 125 μg drug on 1 cm vessel section, 25% ethanol/saline, 37° C.) | Percent of Drug Eluted Over Time ([1]; 23 hours, approx. 125 μg drug on 1 cm vessel section, 25% ethanol/saline, 37° C.) | Percent of Drug Eluted Over Time ([1]; Extract (after extraction, following 23 hours of elution)) | Elution behavior from vessel tissue (in words) ([1]; porcine coronary arterial tissue, 25% ethanol/saline, 37° C.) | Elution behavior from vessel tissue (in words) [2] | Time within which most of the drug eluted off the tissue [2] [h]
1 | CO[C@H]1C[C@@H]2CC[C@@H](C)[C@@](O)(O2)C(=O)C(=O)N2CCCC[C@H]2C(=O)O[C@H]([C@H](C)C[C@@H]2CC[C@@H](OCCO)[C@H](OC)C2)CC(=O)[C@H](C)/C=C(\C)[C@@H](O)[C@@H](OC)C(=O)[C@H](C)C[C@H](C)/C=C/C=C/C=C/1C [Everolimus] | 77% and 71% | 86% and 76% | 87% and 79% | 88% and 80% | 89% and 80% | 89% and 81% | eluting significantly faster than CRC-023 |  | 
2 | CO[C@H]1C[C@@H]2CC[C@@H](C)[C@@](O)(O2)C(=O)C(=O)N2CCCC[C@H]2C(=O)O[C@H]([C@H](C)C[C@@H]2CC[C@@H](O)[C@H](OC)C2)CC(=O)[C@H](C)/C=C(\C)[C@@H](O)[C@@H](OC)C(=O)[C@H](C)C[C@H](C)/C=C/C=C/C=C/1C [Sirolimus] |  |  |  |  |  |  |  | eluting significantly faster than CRC-023 | ≤ 2
